# Data published in US20060069132A1, “Azolecarboxamide herbicides” (priority 2004, published 2006).
# What was measured:
# [1] = test system: barnyardgrass; experiment: Test B pre-/postemergence herbicide test; type: in vivo, Echinochloa crus-galli; conditions: for Barnyardgrass plant response rating: postemergence
# Procedure, shortened: (§1)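 Response was scored visually 13 to 15 days after treatment against untreated greenhouse controls, 0 meaning no effect and 100 complete control. Formulations (solvent mixture plus surfactant) went onto soil after planting, onto foliage of 1- to 4-leaf plants, and onto 2-leaf plants in a flooded paddy set including rice and barnyardgrass.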
# [2] = test system: Surinam grass; experiment: Test B pre-/postemergence herbicide test; type: in vivo, Urochloa decumbens; conditions: for Surinam Grass plant response rating: postemergence
# Procedure, shortened: (§2)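 Pre: seeds sown, then sprayed. Post: 1–4-leaf plants (2–18 cm) sprayed at the same time. Paddy: flooded, treated at 2-leaf stage. Formulation: non-phytotoxic solvent with surfactant. Greenhouse 13–15 days; visual 0–100 score relative to controls.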
# [3] = test system: cocklebur; experiment: Test B pre-/postemergence herbicide test; type: in vivo, Xanthium strumarium; conditions: for Cocklebur plant response rating: postemergence
# Procedure, shortened: as §1
# [4] = test system: corn; experiment: Test B pre-/postemergence herbicide test; type: in vivo, Zea mays; conditions: for Corn plant response rating: postemergence
# Procedure, shortened: as §2
# [5] = test system: large crabgrass; experiment: Test B pre-/postemergence herbicide test; type: in vivo, Digitaria sanguinalis; conditions: for Crabgrass, Large plant response rating: postemergence
# Procedure, shortened: as §2
# [6] = test system: giant foxtail; experiment: Test B pre-/postemergence herbicide test; type: in vivo, Setaria faberi; conditions: for Foxtail, Giant plant response rating: postemergence
# Procedure, shortened: as §2
# [7] = test system: lambsquarters; experiment: Test B pre-/postemergence herbicide test; type: in vivo, Chenopodium album; conditions: for Lambsquarters plant response rating: postemergence
# Procedure, shortened: as §2
# [8] = test system: morningglory; experiment: Test B pre-/postemergence herbicide test; type: in vivo, Ipomoea coccinea; conditions: for Morningglory plant response rating: postemergence
# Procedure, shortened: as §1
# [9] = test system: pigweed; experiment: Test B pre-/postemergence herbicide test; type: in vivo, Amaranthus retroflexus; conditions: for Pigweed plant response rating: postemergence
# Procedure, shortened: as §2
# [10] = test system: blackgrass; experiment: Test B postemergence herbicide test; type: in vivo, Alopecurus myosuroides; conditions: postemergence
# Procedure, shortened: (§3)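 Visual control ratings, 0–100 versus untreated controls, taken after 13 to 15 days in the greenhouse. Blackgrass received a postemergence spray at the 1- to 4-leaf stage (2–18 cm); ducksalad, umbrella sedge and barnyardgrass were flooded-paddy treated at 2 leaves.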
# [11] = test system: wheat; experiment: Test B postemergence herbicide test; type: in vivo, Triticum aestivum; set-up: key to Wheat plant response rating: 0 = no effect, 100 = complete control; conditions: postemergence
# Procedure, shortened: (§4)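 Visual ratings, 0 (no effect) to 100 (complete control), made versus controls after 13–15 d greenhouse. Paddy plants treated at 2-leaf stage; postemergence plants at 1- to 4-leaf stage, 2–18 cm tall.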
# [12] = test system: wild oat; experiment: Test B postemergence herbicide test; type: in vivo, Avena fatua; conditions: postemergence
# Procedure, shortened: as §4
# [13] = test system: rice; experiment: Test B flooded paddy test; type: in vivo, Oryza sativa; conditions: scale 0 to 100 (0 no effect, 100 complete control); for Rice plant response rating: 1000 g ai/ha
# Procedure, shortened: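 Plants grow to 1- to 4-leaf stage (2–18 cm) for postemergence spraying, or to 2-leaf stage for the paddy test. Formulated compound is applied. Greenhouse holding lasts 13–15 days. Response is scored visually relative to controls, 0 no effect to 100 complete control; a dash means no result.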
# [14] = test system: small flower umbrella sedge; experiment: Test B flooded paddy test; type: in vivo, Cyperus difformis; conditions: scale 0 to 100 (0 no effect, 100 complete control); for Sedge, Umbrella plant response rating: 1000 g ai/ha
# Procedure, shortened: as §3
# [15] = test system: ducksalad; experiment: Test B flooded paddy test; type: in vivo, Heteranthera limosa; conditions: scale 0 to 100 (0 no effect, 100 complete control); for Ducksalad plant response rating: 1000 g ai/ha
# Procedure, shortened: as §3
# [16] = test system: barnyardgrass; experiment: Test B flooded paddy test; type: in vivo, Echinochloa crus-galli; conditions: scale 0 to 100 (0 no effect, 100 complete control); for Barnyardgrass plant response rating: 1000 g ai/ha
# Procedure, shortened: as §3
# [17] = 125 g ai/ha, 0 = no effect, 100 = complete control, preemergence
# [18] = 125 g ai/ha, visual rating, scale 0 (no effect) to 100 (complete control)
# [19] = 500 g ai/ha, visual rating, 0 = no effect, 100 = complete control, preemergence
# [20] = 500 g ai/ha, scale 0 to 100, 0 is no effect, 100 is complete control
# [21] = 125 g ai/ha, 0 is no effect, 100 is complete control, preemergence
structure (smiles),measurement,setting,value
CCN(C)C(=O)c1ccc(F)c(NC(=O)C2CC(C(C)(C)C)=NN2CC)c1 (racemic) [Compound 307],Barnyardgrass plant response rating (0 to 100 scale),[1]; [17],80
same,Barnyardgrass plant response rating,[1]; [18],0
same,"Plant response rating, Barnyardgrass",[1]; [19],100
same,Barnyardgrass plant response rating,[1]; [20],10
same,Surinam Grass plant response rating (0 to 100 scale),[2]; [17],70
same,Surinam Grass plant response rating,[2]; [18],10
same,"Plant response rating, Surinam Grass",[2]; [19],90
same,Surinam Grass plant response rating,[2]; [20],30
same,Cocklebur plant response rating (0 to 100 scale),[3]; [17],80
same,Cocklebur plant response rating,[3]; [18],20
same,"Plant response rating, Cocklebur",[3]; [19],100
same,Cocklebur plant response rating,[3]; [20],30
same,Corn plant response rating (0 to 100 scale),[4]; [17],70
same,"Plant response rating, Corn",[4]; [19],80
same,Corn plant response rating,[4]; [20],10
same,"Crabgrass, Large plant response rating (0 to 100 scale)",[5]; [17],90
same,"Crabgrass, Large plant response rating",[5]; [18],10
same,"Plant response rating, Crabgrass, Large",[5]; [19],100
same,"Crabgrass, Large plant response rating",[5]; [20],30
same,"Foxtail, Giant plant response rating (0 to 100 scale)",[6]; [17],90
same,"Foxtail, Giant plant response rating",[6]; [18],20
same,"Plant response rating, Foxtail, Giant",[6]; [19],90
same,"Foxtail, Giant plant response rating",[6]; [20],30
same,Lambsquarters plant response rating (0 to 100 scale),[7]; [17],100
same,Lambsquarters plant response rating,[7]; [18],60
same,"Plant response rating, Lambsquarters",[7]; [19],100
same,Lambsquarters plant response rating,[7]; [20],80
same,Morningglory plant response rating (0 to 100 scale),[8]; [17],0
same,Morningglory plant response rating,[8]; [18],0
same,"Plant response rating, Morningglory",[8]; [19],10
same,Morningglory plant response rating,[8]; [20],0
same,Pigweed plant response rating (0 to 100 scale),[9]; [17],100
same,Pigweed plant response rating,[9]; [18],50
same,"Plant response rating, Pigweed",[9]; [19],100
same,Pigweed plant response rating,[9]; [20],60
same,Blackgrass plant response rating,[10]; [18],10
same,Blackgrass plant response rating,[10]; [20],30
same,Wheat plant response rating,[11]; [18],0
same,Wheat plant response rating,[11]; [20],20
same,"Oat, Wild plant response rating",[12]; [18],0
same,"Oat, Wild plant response rating",[12]; [20],20
same,Rice plant response rating,[13],90
same,"Sedge, Umbrella plant response rating",[14],90
same,Ducksalad plant response rating,[15],80
same,Barnyardgrass plant response rating,[16],90
CCC1=NN(C(C)(C)C)CC1C(=O)Nc1cc(C(=O)N(C)C)ccc1F (racemic) [Compound 343],"Plant response rating (0 to 100 scale), Barnyardgrass",[1]; [21],70
same,Barnyardgrass plant response rating,[1]; [18],10
same,"Plant response rating, Barnyardgrass",[1]; [19],100
same,Barnyardgrass plant response rating,[1]; [20],50
same,"Plant response rating (0 to 100 scale), Surinam Grass",[2]; [21],50
same,Surinam Grass plant response rating,[2]; [18],10
same,"Plant response rating, Surinam Grass",[2]; [19],100
same,Surinam Grass plant response rating,[2]; [20],40
same,Cocklebur plant response rating,[3]; [18],0
same,"Plant response rating, Cocklebur",[3]; [19],90
same,Cocklebur plant response rating,[3]; [20],20
same,Corn plant response rating,[4]; [18],10
same,Corn plant response rating,[4]; [20],30
same,"Plant response rating (0 to 100 scale), Crabgrass, Large",[5]; [21],40
same,"Crabgrass, Large plant response rating",[5]; [18],20
same,"Plant response rating, Crabgrass, Large",[5]; [19],100
same,"Crabgrass, Large plant response rating",[5]; [20],50
same,"Plant response rating (0 to 100 scale), Foxtail, Giant",[6]; [21],30
same,"Foxtail, Giant plant response rating",[6]; [18],30
same,"Plant response rating, Foxtail, Giant",[6]; [19],100
same,"Foxtail, Giant plant response rating",[6]; [20],50
same,"Plant response rating (0 to 100 scale), Lambsquarters",[7]; [21],90
same,Lambsquarters plant response rating,[7]; [18],40
same,"Plant response rating, Lambsquarters",[7]; [19],100
same,Lambsquarters plant response rating,[7]; [20],100
same,"Plant response rating (0 to 100 scale), Morningglory",[8]; [21],50
same,Morningglory plant response rating,[8]; [18],30
same,"Plant response rating, Morningglory",[8]; [19],100
same,Morningglory plant response rating,[8]; [20],80
same,"Plant response rating (0 to 100 scale), Pigweed",[9]; [21],90
same,Pigweed plant response rating,[9]; [18],40
same,"Plant response rating, Pigweed",[9]; [19],100
same,Pigweed plant response rating,[9]; [20],90
same,Blackgrass plant response rating,[10]; [18],0
same,Blackgrass plant response rating,[10]; [20],10
same,Wheat plant response rating,[11]; [18],0
same,Wheat plant response rating,[11]; [20],0
same,"Oat, Wild plant response rating",[12]; [18],10
same,"Oat, Wild plant response rating",[12]; [20],10
same,Rice plant response rating,[13],80
same,"Sedge, Umbrella plant response rating",[14],90
same,Ducksalad plant response rating,[15],90
same,Barnyardgrass plant response rating,[16],90
"CCNC(=O)c1cccc(NC(=O)c2nc(C(C)(C)C)nn2CC)c1 [Compound 446, 3-(1,1-dimethylethyl)-1-ethyl-N-[3-[(ethylamino)carbonyl]phenyl]-1H-1,2,4-triazole-5-carboxamide]",plant injury at 125 g/ha,"[13]; Oryza sativa, 336 h, 125 g ai/ha, read-out: Rice plant response rating",80%
same,plant injury at 500 g/ha,"[13]; Oryza sativa, 336 h, 500 g ai/ha, read-out: Rice plant response rating",90%
same,pest or weed control at 125 g/ha,"[14]; Cyperus difformis, 336 h, 125 g ai/ha, read-out: Sedge, Umbrella plant response rating",90%
same,pest or weed control at 500 g/ha,"[14]; Cyperus difformis, 336 h, 500 g ai/ha, read-out: Sedge, Umbrella plant response rating",90%
same,pest or weed control at 125 g/ha,"[15]; Heteranthera limosa, 336 h, 125 g ai/ha, read-out: Ducksalad plant response rating",70%
same,pest or weed control at 500 g/ha,"[15]; Heteranthera limosa, 336 h, 500 g ai/ha, read-out: Ducksalad plant response rating",80%
same,pest or weed control at 125 g/ha,"[16]; Echinochloa crus-galli, 336 h, 125 g ai/ha, read-out: Barnyardgrass plant response rating",70%
same,pest or weed control at 500 g/ha,"[16]; Echinochloa crus-galli, 336 h, 500 g ai/ha, read-out: Barnyardgrass plant response rating",90%
